Reference: ChEMBL document CHEMBL4732247, “Discovery of A031 as effective proteolysis targeting chimera (PROTAC) androgen receptor (AR) degrader for the treatment of prostate cancer” (Eur J Med Chem, 2021)
Activity calls are given as the source filed them. No cut-off for these calls is given here.

What was measured:
[1] = system: VCaP; experiment: Antitumour activity against human VcaP cells xenografted in AB zebra fish assessed as tumour growth inhibition at 5 uM after 5 days by CM-D11 dye based fluorescence microscopic method; conditions: 120 h, read-out: TGI
[2] = Toxicity in AB zebra fish assessed as mortality rate at 10 to 200 uM after 5 days relative to control; parameters: species or system Danio rerio; conditions: zebrafish, dose 10-200 µM, time 5 day
[3] = Toxicity in AB zebra fish assessed as rolled over at 5 uM after 5 days relative to control; parameters: species or system Danio rerio; conditions: zebrafish, 120 h, time 5 day
[4] = Toxicity in AB zebra fish assessed as mortality rate at 5 uM after 5 days relative to control; parameters: species or system Danio rerio; conditions: zebrafish, time 5 day
[5] = Half life in Sprague-Dawley rat […] at 1 mg/kg, iv measured up to 8 hrs by HPLC-MS analysis; assay type: ADME, organism-based; conditions: in vivo
[6] = Toxicity in AB zebra fish assessed as mortality rate at 6.25 to 25 uM after 5 days relative to control; parameters: species or system Danio rerio; conditions: zebrafish, dose 6.25-25 µM, time 5 day
[7] = target: T1, von Hippel-Lindau disease tumor suppressor/Androgen receptor (Homo sapiens) (UniProt P10275+P40337); experiment: Protac activity at VHL3/AR in human VCAP cells assessed as induction of AR degradation at 2 uM after 2 hrs in presence of proteasome inhibitor MG132 by western blot analysis relative to control; assay type: cell-based
[8] = target: T1, von Hippel-Lindau disease tumor suppressor/Androgen receptor (Homo sapiens); experiment: Protac activity at VHL3/AR in human VCAP cells assessed as induction of AR degradation at 2 uM after 2 hrs by western blot analysis relative to control; assay type: cell-based
[9] = AUC in Sprague-Dawley rat […] at 1 mg/kg, iv measured up to 8 hrs by HPLC-MS analysis; assay type: ADME, organism-based; parameters: route intravenous, dose 1 mg/kg, time <=8; conditions: in vivo
[10] = system: VCaP; experiment: Antitumour activity against human VcaP cells xenografted in AB zebra fish assessed as tumour growth inhibition at 2.8 uM after 5 days by […] dye based fluorescence microscopic method; assay type: functional; conditions: 120 h, time 5 day, read-out: TGI
[11] = target: T1, von Hippel-Lindau disease tumor suppressor/Androgen receptor (Homo sapiens); experiment: Protac activity at VHL3/AR in human VCAP cells assessed as induction of AR degradation at 2 uM after 2 hrs in presence of VHL-3 by western blot analysis; assay type: cell-based
[12] = Toxicity in AB zebra fish assessed as obvious precipitation at 50 to 100 uM after 5 days; parameters: species or system Danio rerio; conditions: zebrafish, 120 h, dose 50-100 µM, time 5 day
[13] = Toxicity in AB zebra fish assessed as toxic phenotype at 6.25 to 25 uM after 5 days relative to control; parameters: species or system Danio rerio; conditions: zebrafish, 120 h, dose 6.25-25 µM, time 5 day
[14] = system: VCaP; experiment: Cytotoxicity against human VCaP cells assessed as growth inhibition at 0.125 uM after 4 days by CCK8 assay relative to control; assay type: functional; conditions: 96 h, time 4 day, read-out: GI
[15] = target: T1, von Hippel-Lindau disease tumor suppressor/Androgen receptor (Homo sapiens); experiment: Protac activity at VHL3/AR in human VCAP cells assessed as induction of AR degradation at 2 uM after 4.5 hrs by western blot analysis relative to control; assay type: cell-based
[16] = target: T1, von Hippel-Lindau disease tumor suppressor/Androgen receptor (Homo sapiens); experiment: Protac activity at VHL3//AR in human VCAP cells assessed as induction of AR degradation at 2 uM after 2 hrs in presence of E1 inhibitor MLN4924 by western blot analysis relative to control; assay type: cell-based
[17] = system: VCaP; experiment: Cytotoxicity against human VCaP cells assessed as growth inhibition at 0.25 uM after 4 days by CCK8 assay relative to control; assay type: functional; conditions: 96 h, time 4 day, read-out: GI
[18] = target: T1, von Hippel-Lindau disease tumor suppressor/Androgen receptor (Homo sapiens); experiment: Protac activity at VHL3/AR in human VCAP cells assessed as induction of AR degradation at 2 uM by western blot analysis; assay type: cell-based; conditions: time 2-4.5 hrs, TDE = time-dependent effect
[19] = system: VCaP; experiment: Antitumour activity against human VcaP cells xenografted in AB zebra fish assessed as tumour growth inhibition at 25 uM after 5 days by […] dye based fluorescence microscopic method; assay type: functional; conditions: 120 h, time 5 day, read-out: TGI
[20] = system: VCaP; experiment: Cytotoxicity against human VCaP cells assessed as growth inhibition at 0.5 uM after 4 days by CCK8 assay relative to control; assay type: functional; conditions: 96 h, time 4 day, read-out: GI
[21] = Cmax in Sprague-Dawley rat […] at 1 mg/kg, iv measured up to 8 hrs by HPLC-MS analysis; assay type: ADME, organism-based; parameters: route intravenous, dose 1 mg/kg, time <=8; conditions: in vivo
[22] = system: VCaP; experiment: Cytotoxicity against human VCaP cells assessed as growth inhibition at 1 uM after 4 days by CCK8 assay relative to control; assay type: functional; conditions: 96 h, time 4 day, read-out: GI
[23] = system: VCaP; experiment: Antitumour activity against human VcaP cells xenografted in AB zebra fish assessed as tumour growth inhibition at 8.3 uM after 5 days by […] dye based fluorescence microscopic method; assay type: functional; conditions: 120 h, time 5 day, read-out: TGI
[24] = Toxicity in AB zebra fish assessed as maximum non-toxic concentration after 5 days; parameters: species or system Danio rerio; conditions: zebrafish, time 5 day, read-out: MTC
[25] = system: VCaP; experiment: Cytotoxicity against human VCaP cells assessed as growth inhibition at 0.8 uM after 4 days by CCK8 assay relative to control; assay type: functional; conditions: 96 h, time 4 day, read-out: GI
[26] = system: VCaP; experiment: Cytotoxicity against human VCaP cells assessed as growth inhibition at 0.032 uM after 4 days by CCK8 assay relative to control; assay type: functional; conditions: 96 h, time 4 day, read-out: GI
[27] = system: VCaP; experiment: Cytotoxicity against human VCaP cells assessed as growth inhibition at 4 uM after 4 days by CCK8 assay relative to control; assay type: functional; conditions: 96 h, time 4 day, read-out: GI
[28] = system: VCaP; experiment: Cytotoxicity against human VCaP cells assessed as growth inhibition after 4 days by CCK8 assay; assay type: functional, cell-based; conditions: dose 0.032-4 µM, time 4.0 day
[29] = system: VCaP; experiment: Cytotoxicity against human VCaP cells assessed as growth inhibition at 0.16 uM after 4 days by CCK8 assay relative to control; assay type: functional; conditions: 96 h, time 4 day, read-out: GI

T1 sequence (P10275 whole entry, looked up): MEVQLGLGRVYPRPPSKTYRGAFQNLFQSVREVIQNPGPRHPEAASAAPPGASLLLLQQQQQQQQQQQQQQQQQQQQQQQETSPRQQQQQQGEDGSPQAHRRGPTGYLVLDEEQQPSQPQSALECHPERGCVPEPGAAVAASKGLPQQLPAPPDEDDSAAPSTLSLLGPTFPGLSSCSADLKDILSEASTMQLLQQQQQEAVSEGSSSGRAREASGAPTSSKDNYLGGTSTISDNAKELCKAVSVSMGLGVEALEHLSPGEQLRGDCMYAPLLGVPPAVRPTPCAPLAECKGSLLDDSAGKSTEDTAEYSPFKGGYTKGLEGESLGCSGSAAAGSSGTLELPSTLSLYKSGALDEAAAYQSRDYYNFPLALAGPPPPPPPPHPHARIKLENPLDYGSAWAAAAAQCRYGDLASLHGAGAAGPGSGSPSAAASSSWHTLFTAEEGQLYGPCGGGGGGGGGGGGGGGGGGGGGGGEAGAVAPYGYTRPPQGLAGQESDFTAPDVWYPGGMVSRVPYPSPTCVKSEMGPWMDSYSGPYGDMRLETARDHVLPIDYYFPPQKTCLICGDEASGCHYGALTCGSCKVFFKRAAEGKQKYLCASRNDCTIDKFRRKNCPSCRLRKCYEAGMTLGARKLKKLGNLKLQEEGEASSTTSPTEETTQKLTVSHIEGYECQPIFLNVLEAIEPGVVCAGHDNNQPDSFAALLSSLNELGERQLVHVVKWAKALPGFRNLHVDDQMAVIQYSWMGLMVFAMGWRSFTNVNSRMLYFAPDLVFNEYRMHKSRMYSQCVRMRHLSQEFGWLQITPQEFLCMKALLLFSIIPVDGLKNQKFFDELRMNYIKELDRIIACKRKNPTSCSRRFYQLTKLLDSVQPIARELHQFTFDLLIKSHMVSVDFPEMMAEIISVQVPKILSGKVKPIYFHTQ
T1 sequence (P40337 whole entry, looked up): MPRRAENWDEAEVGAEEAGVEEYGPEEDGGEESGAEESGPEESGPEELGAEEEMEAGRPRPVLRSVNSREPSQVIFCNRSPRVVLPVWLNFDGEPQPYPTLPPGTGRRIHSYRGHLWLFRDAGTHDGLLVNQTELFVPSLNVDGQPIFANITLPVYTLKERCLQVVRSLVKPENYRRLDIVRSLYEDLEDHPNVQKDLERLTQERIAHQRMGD

Work on CNC(=O)c1ccc(N2C(=S)N(c3ccc(C#N)c(C(F)(F)F)c3)C(=O)C2(C)C)cc1F [ENZALUTAMIDE] yielded an inhibition in vivo at 5 µM [1] of 49%, a mortality at 120 h, up to 200 µM [2] of 100% and an Activity [3] of 10%. The mortality at 120 h, 5 µM [4] was 0%.
With Cc1ncsc1-c1ccc([C@H](C)NC(=O)[C@@H]2C[C@@H](O)CN2C(=O)[C@@H](NC(=O)COCCN2CCN(c3ncc(C(=O)N4[C@@H]5CC[C@H]4C[C@@H](Oc4ccc(C#N)c(Cl)c4)C5)cn3)CC2)C(C)(C)C)cc1 the half-life [5] was 34.2 min, the mortality at 120 h [6] was 0% and the Activity [7] was “inactive”. For the same compound, the Activity [8] was “Active”, the AUC at 8 h [9] was 1770 ng·h/mL and the inhibition in vivo at 2.8 µM [10] was 28%. For the same compound, the Activity [11] was “Active”, the Activity [12] was “Toxic” and the Activity [13] was “Non-Toxic”. The inhibition of growth at 0.125 µM [14] was 40.3%, the Activity [15] was “Active” and the Activity [16] was “inactive”. For the same compound, the inhibition of growth at 0.25 µM [17] was 56.4%, the Activity [18] was “Tde” and the inhibition in vivo at 25 µM [19] was 61%. For the same compound, the inhibition of growth at 0.5 µM [20] was 66.1%, the Cmax [21] was 14400 ng/mL and the inhibition of growth at 1 µM [22] was 69.6%. It also gave an inhibition in vivo at 8.3 µM [23] of 44% and an MNTC at 120 h [24] of 25 µM.
Work on N#Cc1ccc(O[C@H]2C[C@H]3CC[C@@H](C2)N3C(=O)c2ccc(N3CCN(CCCCCCCCCNc4cccc5c4C(=O)N(C4CCC(=O)NC4=O)C5=O)CC3)cc2)cc1Cl (stereo partly drawn) yielded an inhibition of growth at 0.8 µM [25] of 42.5%, an inhibition of growth at 0.032 µM [26] of 15.4% and an inhibition of growth at 4 µM [27] of 42.1%. For the same compound, the “growth inhibition (GI)” value [28] was “Dose-dependent effect” and the inhibition of growth at 0.16 µM [29] was 27.7%.
For N#Cc1ccc(O[C@H]2C[C@H]3CC[C@@H](C2)N3C(=O)c2ccc(N3CCN(CCCCCCCCNc4cccc5c4C(=O)N(C4CCC(=O)NC4=O)C5=O)CC3)cc2)cc1Cl (stereo partly drawn), the inhibition of growth at 0.8 µM [25] was 41.5%, the inhibition of growth at 0.032 µM [26] was 0.07% and the inhibition of growth at 4 µM [27] was 51.2%. The “growth inhibition (GI)” value [28] was “Dose-dependent effect” and the inhibition of growth at 0.16 µM [29] was 22.9%.
With N#Cc1ccc(O[C@H]2C[C@H]3CC[C@@H](C2)N3C(=O)c2ccc(N3CCN(CCCCCCCNc4cccc5c4C(=O)N(C4CCC(=O)NC4=O)C5=O)CC3)cc2)cc1Cl (stereo partly drawn) the inhibition of growth at 0.8 µM [25] was 42.4%, the inhibition of growth at 4 µM [27] was 47.2% and the “growth inhibition (GI)” value [28] was “Dose-dependent effect”. For the same compound, the inhibition of growth at 0.16 µM [29] was 15.7%.
